Key:
[1] = Visual skin damage / necrosis after iron permeation study; details: after 24 h permeation study, porcine skin
From the text: (§1) On the day of the experiment, the skin was defrosted. For the full thickness studies, the subcutaneous fat removed (2.5 mm thick) and for the dermatomes skin studies the tissued was dermatomed to a 1 mm thickness. The tissue was cut into the appropriate size sections (2.19±0.21 cm^2) and mounted between donor and receiver compartments of Franz diffusion cells with the SC facing the donor compartment. Each cell was sealed using parafilm and 12 mm magnetic stir bars were placed into the receiver compartment. The receiver compartment was filled with the desired receiver solution and the Franz cells were placed in a stirring water bath at 37° C. Cells were allowed to equilibrate for 30 min after which the receiver fluid using was mixed using a syringe and the “zero hour” sample was withdrawn from the arm and compensate with the same volume of fresh pre-warmed solution. Following zero-hour sampling, the donor solution was placed in the donor compartment and covered with parafilm. Samples were withdrawn and compensated with fresh receiver solution at set time intervals for a 24 h duration. The iron in each sample was quantified using the method specified in Section 2.2.2.1. […] There was no matrix interference noted in the assay. […] For iron maltol a 80:20 PG:water receiver was used along with a complementary calibration for iron assay (iron chloride in PG:water). The donor solution for the iron maltol made at pH 1.6 was 200 μL of 100 mg/mL complex in Transcutul®, for iron maltol made at pH 4 the donor solution was 200 μL of 23 mg/mL complex in PG and for iron maltol made at pH 4 the donor solution was 150 μL of 16 mg/mL complex in 7.5:1.5:1:1 water:PG:dimethicone:ethanol.

[2] = Franz cell porcine skin permeation and deposition of iron from solutions; assay type: in vitro ADME; details: for total delivered dose: PG solution; for permeation and deposition in the skin: solutions
Method: The permeation of the iron complexes from the formulations into and across porcine skin mounted on Franz cells with a receiver fluid was tested (FIG. 4). This was based on the principles of the FDA, SUPAC-SS guidelines. The developed colorimetric assay method was used for iron quantification.
as §1
Once the permeation studies were completed the donor solutions were collected into bottles containing the extraction solution. This was followed by skin surface cleaning using four cotton buds, the first two were wetted by the extraction fluid and the second two were used dry. Then two tape striping procedures were performed using 2 tapes to remove any iron on the skin surface with the tape being added to the donor solution and cotton buds in the donor recover vial. For the full skin thickness skin, the Stratum corneum, the dermal and the epidermal layers were isolated in the same way as the recovery method (Section 2.3.2.1). Extraction fluid (50:50 PBS:ethanol) was then added to the tissues, 4 mL to the Stratum corneum, and 2 mL for each of the epidermis and dermis. For the dermatomed skin the whole skin section was chopped up and placed in a 2 mL extraction fluid (ethanol).
The Stratum corneum samples were placed on vibrating plate for a minimum of 2 h to extract the iron and then vortexed prior assay. The epidermis, dermis or dermatomed samples however were incubated with the extraction fluid for 1 h after which were transferred to Eppendorf tubes, one stainless steel 5 mm bead was added and the samples were loaded into the TissuLyser II (Qiagen, Germany) for 30-15 min at 30 Hz. The samples were then centrifuged (5 min at 13,000 rpm) and supernatant assayed.

[3] = Solubility of iron chloride hexahydrate and iron complexes (visual / assayed); assay type: physicochemical
Method: Due to the high number of test samples (6 complexes plus the starting material, iron chloride hexahydrate) a visual solubility screen was used to screen the solubility in a range of solvents. […] Quantitative determination was performed by either incubating the complex in excess in the solvent using a shaking 37° C. water bath for 48 h or sonicating it for 2 hours at 40° C. or leaving overnight on a 50° C. hot plate. Once incubation period was completed, the exact solubility in a particular solvent was assayed (using the iron assay) after centrifugation (i.e. assay iron content in the supernatant using the Ferrozine® assay).

[4] = Iron complex adhesive compatibility and loading screen; assay type: physicochemical
Method: Pre-formulation studies were performed to determine the compatibility of the iron complexes with a range of transdermal patch adhesives (Table 15).
The compatibility of the complexes with the patch adhesives was assessed by mixing and visually checking the clarity of the mixture.
In the adhesives that were computable with the iron complexes the maximum drug loading of the complexes in the adhesive following solvent evaporation was determined. This was achieved by mixing the drug, adhesive and co-solvents until a clear solution was obtained at different drug:adhesive ratios and placing few drops of the mixture onto the patch backing sheet, leaving it to dry for 3-4 h, and examining the formed film on the surface of the backings for evidence of drug crystals.
Following complete drying of the solvents, the adhesive layer was covered by a release liner, compressed, and then cut using 34 mm circular manual die cutter (FIG. 23).

[5] = PG, 370 mg elemental iron dosed, 2 cm^2, 24 h

In the case of `O.O.O.O.O.O.[Cl-].[Cl-].[Cl-].[Fe+3]` [Iron chloride hexahydrate, reference compound], the “skin damage / necrosis” value [1] is reported as “necrosis of the skin”, the “elemental iron permeated the skin” value [2, 5] is reported as 180 mg and the “elemental iron permeated, percent of dose” value [2, 5] is reported as 48%. The “dose above the desired target (4.6 mg)” value ([2]; PG, 24 h) was 40 times, the “Solubility, equivalent elemental iron” value ([3]; PG) was 370 mg/mL and the Solubility ([3]; PG, as iron chloride hexahydrate) was 1400 mg/mL.

For `CCc1occc(=O)c1[O-].CCc1occc(=O)c1[O-].CCc1occc(=O)c1[O-].[Fe+3]` [Iron ethyl maltol, iron ethyl maltol], the “skin damage / necrosis” value [1] was “did not cause any visible skin damage”, the compatibility with adhesives [4] was “only compatible with DURO-TAK 9301” and the “(maximum) complex loading achieved in adhesive” value ([4]; methanol stock solution 10 mg/mL) was 4%. The “complex loading achieved in adhesive patch” value ([4]; methanol stock solution 18 mg/mL) was 8.5%, the total delivered dose ([2]; 24 h) was 12 μg/cm^2 and the “Solubility of complex (visual)” value ([3]; Chloroform) was ≥20 mg/mL Iron ethyl maltol*. For the same molecule, the “Solubility of complex (visual)” value ([3]; Ethyl acetate) was <8 mg/mL Iron ethyl maltol*, the “Solubility of complex (visual)” value ([3]; Glycerol) was <8 mg/mL Iron ethyl maltol* and the “Solubility of complex (visual)” value ([3]; Hexane) was <8 mg/mL Iron ethyl maltol*. The “Solubility of complex (visual)” value ([3]; Liquid Paraffin) was <8 mg/mL Iron ethyl maltol*, the “Solubility of complex (visual)” value ([3]; Methanol) was ≥20 mg/mL Iron ethyl maltol* and the “Solubility of complex (visual)” value ([3]; Miglyol) was <8 mg/mL Iron ethyl maltol*. For the same molecule, the “Solubility of complex (visual)” value ([3]; Oleic acid) was <8 mg/mL Iron ethyl maltol*, the “Solubility of complex (visual)” value ([3]; Transcutul) was <8 mg/mL Iron ethyl maltol* and the “Solubility of complex (visual)” value ([3]; Triaceten) was <8 mg/mL Iron ethyl maltol*.

With `Cc1occc(=O)c1[O-].Cc1occc(=O)c1[O-].Cc1occc(=O)c1[O-].[Fe+3]` [Iron maltol made at pH 1.6, iron maltol] the “skin damage / necrosis” value [1] was “caused skin necrosis”, the “permeation and deposition in the skin” value ([2]; 24 h) was “permeated and deposited in the skin” and the “Solubility of complex (visual)” value ([3]; PEG400) was <6 mg/mg/mL. The “Solubility of complex (visual)” value ([3]; PG) was <6 mg/mg/mL, the Solubility of complex ([3]; Transcutul) was 100 mg/mg/mL and the “Solubility, equivalent elemental iron” value ([3]; Transcutul) was “to 13 mg/ mg/mL”.

With `Cc1occc(=O)c1[O-].Cc1occc(=O)c1[O-].Cc1occc(=O)c1[O-].[Fe+3]` [Iron maltol made at pH 4, iron maltol] the “skin damage / necrosis” value [1] was “without inducing skin necrosis”, the total delivered dose ([2]; 24 h) was 65 μg/cm^2 and the “permeation and deposition in the skin” value ([2]; 24 h) was “permeated and deposited in the skin”. For the same molecule, the Solubility of complex ([3]; PEG400) was 20 mg/mg/mL, the “Solubility, equivalent elemental iron” value ([3]; PEG400) was “to 2.7 mg/ mg/mL” and the Solubility of complex ([3]; PG) was 17 ± 5 mg/mg/mL. For the same molecule, the “Solubility, equivalent elemental iron” value ([3]; PG) was “to 2.3 ± 0.6 mg/mL”, the Solubility ([3]; PG and PEG400 (conclusions)) was 18 mg/mL and the “Solubility of complex (visual)” value ([3]; Transcutul) was <6 mg/mL.

From patent US20260306421A1, “SYSTEMS AND METHODS FOR TRANSDERMAN PATCH DELIVERY” (VITAMAX PATCH WHOLESALER LLC, priority 2022, published 2026)
